Results from the supplement of paper PMC10307832.

Assays:
Experiment in all cases: relative viability (nuclei count vs DMSO), 5 days (fraction); higher = more cells survive
[1] = compound: CN[C@@H]1C[C@H]2O[C@@](C)([C@@H]1OC)n1c3ccccc3c3c4c(c5c6ccccc6n2c5c31)C(=O)NC4 [Staurosporine] + CCNC(=O)c1noc(-c2cc(C(C)C)c(O)cc2O)c1-c1ccc(CN2CCOCC2)cc1 [Luminespib] (partner 0.01 µM)
Outline: (§1)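 Lung cancer cell lines in 1536-well plates were dosed by pin tool the day after seeding, either with one drug alone or with a fixed anchor-drug dose plus five library-drug doses (not always all listed) in √10 steps. After 5 days, cells were fixed and their nuclei stained in one step (final 0.05% Triton X-100, 1% formaldehyde, 1 ug/ml Hoechst), then counted on 4× images. Relative viability is the nuclei count in treated wells divided by that in vehicle wells. Values are medians of duplicate plates.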

[2] = compound: O=c1[nH]cc(F)c(=O)[nH]1 [5-Fluorouracil] + CCNC(=O)c1noc(-c2cc(C(C)C)c(O)cc2O)c1-c1ccc(CN2CCOCC2)cc1 [Luminespib] (partner 0.01 µM)
Outline: as §1

[3] = compound: O=c1[nH]cc(F)c(=O)[nH]1 [5-Fluorouracil] + C[C@@H](Oc1cc(-c2cnn(C3CCNCC3)c2)cnc1N)c1c(Cl)ccc(F)c1Cl [Crizotinib] (partner 1 µM)
Outline: as §1

[4] = compound: O=c1[nH]cc(F)c(=O)[nH]1 [5-Fluorouracil] + N=C(N)NC(=N)NCCc1ccccc1 [Phenformin] (partner 250 µM)
Outline: as §1

Row | Cell Line | relative viability ([1]; first compound 0.005 µM) | relative viability ([1]; first compound 0.01581 µM) | relative viability ([1]; first compound 0.05 µM) | relative viability ([1]; first compound 0.1581 µM) | relative viability ([1]; first compound 0.5 µM) | relative viability ([2]; first compound 0.02 µM) | relative viability ([2]; first compound 0.2 µM) | relative viability ([2]; first compound 0.6325 µM) | relative viability ([2]; first compound 2 µM) | relative viability ([3]; first compound 0.02 µM) | relative viability ([3]; first compound 0.2 µM) | relative viability ([3]; first compound 0.6325 µM) | relative viability ([3]; first compound 2 µM) | relative viability ([4]; first compound 0.02 µM) | relative viability ([4]; first compound 0.2 µM) | relative viability ([4]; first compound 0.6325 µM) | relative viability ([4]; first compound 2 µM)
1 | NCI-H1563 | 0.54 | 0.481 | 0.504 | 0.446 | 0.408 | 0.49 | 0.478 | 0.499 | 0.488 | 0.798 | 0.806 | 0.892 | 0.699 | 0.713 | 0.611 | 0.641 | 0.646
2 | LXF-289 | 0.584 | 0.13 | 0.246 | 0.0904 | 0.0899 | 0.701 | 0.435 | 0.251 | 0.238 | 0.793 | 0.574 | 0.338 | 0.277 | 0.507 | 0.428 | 0.332 | 0.297
3 | NCI-H1734 | 0.112 | 0.0831 | 0.511 | 0.0656 | 0.0444 | 0.173 | 0.193 | 0.198 | 0.189 | 0.709 | 0.742 | 0.533 | 0.37 | 0.374 | 0.436 | 0.379 | 0.313
4 | LU99A | 0.21 | 0.176 | 0.134 | 0.137 | 0.123 | 0.245 | 0.281 | 0.234 |  | 0.579 | 0.521 | 0.521 | 0.384 | 0.905 | 0.786 | 0.738 | 0.586
5 | RERF-LC-KJ | 0.97 | 0.671 | 0.266 | 0.222 | 0.237 | 1.42 | 1.24 | 1.22 | 0.904 | 0.867 | 0.841 | 0.849 | 0.665 | 0.465 | 0.452 | 0.466 | 0.386
6 | NCI-H2087 | 0.151 | 0.139 | 0.112 | 0.112 | 0.0949 | 0.168 | 0.162 | 0.16 | 0.142 | 0.921 | 0.817 | 0.541 | 0.509 | 0.49 | 0.555 | 0.438 | 0.333
7 | NCI-H2170 | 0.587 |  | 0.463 | 0.238 | 0.148 | 0.507 | 0.541 | 0.503 | 0.3 | 1.28 | 1.1 | 0.608 | 0.468 | 0.393 | 0.42 | 0.341 | 0.293
8 | NCI-H2228 | 0.0928 | 0.122 | 0.0907 | 0.0947 | 0.0857 | 0.158 | 0.156 | 0.145 | 0.18 | 0.441 | 0.483 | 0.457 | 0.343 | 0.408 | 0.249 | 0.259 | 0.249
9 | H3255 | 0.771 | 0.513 | 0.44 | 0.266 | 0.212 | 0.945 | 1 | 0.83 | 0.741 | 0.835 | 0.846 | 0.831 | 0.561 | 0.35 | 0.393 | 0.35 | 0.351
10 | HCC-15 | 0.303 |  | 0.219 | 0.169 | 0.165 | 0.293 | 0.294 | 0.292 | 0.225 | 0.867 | 0.782 | 0.499 | 0.269 | 0.563 | 0.532 | 0.332 | 0.27
11 | NCI-H838 | 0.247 | 0.135 | 0.138 | 0.107 | 0.113 | 0.261 | 0.245 | 0.209 | 0.16 | 0.873 | 0.809 | 0.498 | 0.297 | 0.544 | 0.609 | 0.364 | 0.245
12 | NCI-H2023 | 0.343 | 0.228 | 0.109 | 0.088 | 0.045 | 0.844 | 0.154 | 0.106 | 0.0768 | 0.621 | 0.189 | 0.105 | 0.106 | 0.448 | 0.181 | 0.102 | 0.0896
